Patent US20250273312A1, “SYSTEM AND METHOD FOR IMMUNOSUPPRESSANT DOSAGE” (THE REGENTS OF THE UNIVERSITY OF CALIFORNIA, priority 2021, published 2025)

How the values were obtained:
[1] = Same clinical trial: clinical outcomes (length of stay, AST normalization, neurotoxicity); format: in vivo, human
Excerpt: (§1) The inclusion criteria for the study was (1) the subject was undergoing primary or secondary liver or simultaneous liver and kidney transplantation; (2) the subject or a surrogate was able to provide informed consent; and (3) the subject was at least 18 years of age. […] Sixty two (62) subjects were accepted into the trial.
(§2) Each of the 62 selected subjects were randomized, with half (31) assigned to a control group and the other half (31) assigned to a phenotypic personalized medicine (PPM) group. The subjects were blinded to group assignments; the clinical team was not blinded. The patients in the PPM group were given tacrolimus dosages based on the present dosage calculation system and patients of the Control group were given tacrolimus dosages based on standard-of-care (SOC) dosing. The SOC dosing utilized a combination of dose titration and a subjective determination by a clinician. The subjective determination relied on patient weight, age, muscle mass, race/ethnicity, frailty, diet, concomitant medication, and other factors to select an initial dose for the next twenty-four hours. The patient's response to this dose is then taken into consideration for determining the next day's dose recommendation. This determination was repeated each day until the patient was able to be released from the hospital.
Tacrolimus dosage was discontinued for one patient in each of the PPM group and the Control group. […] As this would affect dosing accuracy and the study outcomes, this patient was excluded from analysis. One patient assigned to the Control group refused multiple tacrolimus doses in the post-operative period and was therefore excluded from analysis. The remaining 56 (29 Control group and 27 PPM group) patients completed the study and were discharged from the hospital after transplantation.
Following liver transplantation, all study patients were started on standard-of-care medication regimen: a three-drug combination of tacrolimus, a corticosteroid, and mycophenolate. Blood tacrolimus trough levels were measured daily in the morning until patient discharge. […] After the third day, the Control group continued with the standard-of-care procedure while the PPM group subjects were given dosages calculated by the PPM prediction model, shown in the Function below.
The primary outcome measure was percent days with large (>2 ng/ml) deviations from target range. Secondary outcomes included percent days outside-of-target range, ratio of area-under-the-curve outside-of-target-range to total days, graft rejection, graft failure, death, infections, length of stay, nephrotoxicity episodes, or neurotoxicity episodes. Comparisons between the two groups were performed using either the two-tailed Welch's t-test or Student's t-test. For nonparametric (non-normal) distributions, a two-tailed Levene's test was used to compare variances and a two-tailed Wilcoxon Rank Sum test was used to compare medians. Logistic regression was used to dichotomize the length of stay after transplant and the percent days out of target range for comparison. Statistical analyses were performed on JMP Pro 16.1.0.

[2] = human, in vivo
Excerpt: as §1
as §2, with “The patients in the PPM group were given tacrolimus dosages based on the present dosage calculation system and patients of the Control group were given tacrolimus dosages based on standard-of-care (SOC) dosing.” left out
After the third day, the Control group continued with the standard-of-care procedure while the PPM group subjects were given dosages calculated by the PPM prediction model, shown in the Function below. […]

[3] = Average deviation between target (predicted) and measured tacrolimus serum level for dosing Functions 0, 1, 2; parameters: species or system human; conditions: unit assumed
Excerpt: Additionally, data from the clinical trial was utilized to determine the average deviations between a target (i.e., predicted) serum level and an actual (i.e., measured) serum level for the two PPM patients.
Where Function 0 is ST(DT, t)=x0(t)+x1(t)DT+x11(t)DT^2; Function 1 is [(D/S)T](N+1) day=[(D/S)T]N day; and Function 2 is [(D/S)T]next day=x0(t)+x1(t)[AST×(D/S)T]today+z11(t)[AST×(D/S)T] today. […] By incorporating the AST level the current system and methods can provide further improvement in achieving a target serum levels

decrease in the percentage of days with a large deviation from the target trough drug level [2]: 37% | reduction of the mean AUC outside of target range [2]: 30% | Average Deviation from Target Serum Level ([3]; Function 0, first row of Table 5 (one of the two PPM patients)): 2.9 ng/mL | Average Deviation from Target Serum Level ([3]; Function 0, second row of Table 5 (one of the two PPM patients)): 1.6 ng/mL | Average Deviation from Target Serum Level ([3]; Function 1, first row of Table 5): 2 ng/mL | Average Deviation from Target Serum Level ([3]; Function 1, second row of Table 5): 1.2 ng/mL | Average Deviation from Target Serum Level ([3]; Function 2, first row of Table 5): 1.4 ng/mL | Average Deviation from Target Serum Level ([3]; Function 2, second row of Table 5): 0.6 ng/mL
Structure (SMILES): C=CC[C@@H]1/C=C(\C)C[C@H](C)C[C@H](OC)[C@H]2O[C@@](O)(C(=O)C(=O)N3CCCC[C@H]3C(=O)O[C@H](/C(C)=C/[C@@H]3CC[C@@H](O)[C@H](OC)C3)[C@H](C)[C@@H](O)CC1=O)[C@H](C)C[C@@H]2OC [tacrolimus]
days after liver transplant until release from hospital ([1]; Control Patient, conventional titration): 19 days | average hospital stay ([1]; Control group): 15.87 days | day by which 90% of the patients were discharged ([1]; Control group): 25 days | share of group with post-transplant length of stay two weeks or more ([1]; Control group): 65.5% | median days to normalize AST levels (DAST) ([1]; Control group (Q1-Q3 6.25-11.75)): 8.5 days | median length-of-stay (LOS) ([1]; Control group (Q1-Q3 10.5-20.5)): 15 days | average hospital stay ([1]; Control group, two patients with the longest stay removed): 14.36 days | days after liver transplant until release from hospital ([1]; First PPM Patient): 12 days | average hospital stay ([1]; PPM group): 10.42 days | day by which 90% of the patients were discharged ([1]; PPM group): 15 days | share of group with post-transplant length of stay two weeks or more ([1]; PPM group (5/27)): 18.5% | median days to normalize AST levels (DAST) ([1]; PPM group (Q1-Q3 4-8)): 6 days | median length-of-stay (LOS) ([1]; PPM group (Q1-Q3 8-12)): 10 days | reduction in the post-transplant length of stay ([1]; PPM group versus Control group): more than 30% | average hospital stay ([1]; PPM group, two patients with the longest stay removed): 8 days | day of release from hospital ([1]; Second PPM Patient): 11 days | neurotoxicity leading to discontinuation of tacrolimus ([1]; one patient in each of the PPM group and the Control group, evidenced by brain imaging): neurotoxicity within the first week after transplant that was deemed not dose related
